# Source: the Deep4Chem optical property database
# Test: solvent given as SMILES
smiles,measurement,setting,value
CN(C)c1ccc2cc3ccc(N(C)C)cc3nc2c1,fluorescence lifetime,in O,2 ns
CCCCCCOc1ccc(N(c2ccc(OCCCCCC)cc2)c2ccc(-c3sc(-c4ccc(N(c5ccc(OCCCCCC)cc5)c5ccc(OCCCCCC)cc5)cc4)c4nc(CC)c(CC)nc34)cc2)cc1,fluorescence lifetime,in CN(C)C=O,0.92 ns
same,fluorescence lifetime,in ClC(Cl)Cl,1.09 ns
N#Cc1c(-n2c3ccccc3c3cc(Br)ccc32)c(C#N)c(-n2c3ccccc3c3cc(Br)ccc32)c(-n2c3ccccc3c3cc(Br)ccc32)c1-n1c2ccccc2c2cc(Br)ccc21,fluorescence lifetime,in Cc1ccccc1,0.4 ns
Nc1ccc2c3c(cccc13)C(=O)c1ccccc1-2,fluorescence lifetime,in CC#N,5.9 ns
same,fluorescence lifetime,in CC(C)=O,6.9 ns
same,fluorescence lifetime,in CC(C)O,2 ns
same,fluorescence lifetime,in CCCCOCCCC,9.2 ns
same,fluorescence lifetime,in CCOC(C)=O,7.1 ns
same,fluorescence lifetime,in CCOCC,9.5 ns
same,fluorescence lifetime,in CO,1.5 ns
same,fluorescence lifetime,in Cc1ccccc1,9.2 ns
same,fluorescence lifetime,in Clc1ccccc1,8.6 ns
same,fluorescence lifetime,in N#Cc1ccccc1,7.5 ns
same,fluorescence lifetime,in O=C1CCCCC1,7.8 ns
CCN(CC)c1ccc2cc3c([o+]c2c1)/C(=C/Nc1ccccc1)CCC3,fluorescence lifetime,in CCO,4.05 ns
same,fluorescence lifetime,in ClC(Cl)Cl,2.65 ns
same,fluorescence lifetime,in ClCCl,4.97 ns
N#Cc1ccc(/C=C2\OC(=O)c3cc(N)ccc32)cc1,fluorescence lifetime,in CC#N,0.51 ns
same,fluorescence lifetime,in CC(C)=O,0.54 ns
same,fluorescence lifetime,in CC(C)CO,2.4 ns
same,fluorescence lifetime,in CCO,2.2 ns
same,fluorescence lifetime,in CCOC(C)=O,0.75 ns
same,fluorescence lifetime,in CO,2.67 ns
C=CCOc1nnc(OCCC(F)(F)C(F)(F)C(F)(F)C(F)(F)C(F)(F)C(F)(F)F)nn1,fluorescence lifetime,in ClCCl,63.8 ns
same,fluorescence lifetime,in OCC(F)(F)F,8.7 ns
ClP1(Cl)=N[P@](Cl)(Oc2ccc3ccc4cccc5ccc2c3c45)=N[P@@](Cl)(Oc2ccc3ccc4cccc5ccc2c3c45)=N1,fluorescence lifetime,in ClCCl,3.02 ns
CCCCOC(=O)c1cc(Oc2ccc(C(C)(C)C)cc2)c2c3c(Cl)cc4c5c(cc(Cl)c(c6c(Oc7ccc(C(C)(C)C)cc7)cc(C(=O)OCCCC)c1c26)c53)C(=O)N(c1c(C(C)C)cccc1C(C)C)C4=O,fluorescence lifetime,in Cc1ccccc1,6.42 ns
CC1=[N+]2C(=C(c3ccc(N4CCOCC4)cc3)c3ccc(C)n3[B-]2(F)F)C=C1,fluorescence lifetime,in C1CCCCC1,2.15 ns
same,fluorescence lifetime,in Cc1ccccc1,3.12 ns
O=C([O-])c1ccc(C(=O)[O-])c(C2=c3cc4c5c(c3Oc3c2cc2c6c3CCCN6CCC2)CCC[N+]=5CCC4)c1,fluorescence lifetime,in CCO,5.21 ns
same,fluorescence lifetime,in O,4.79 ns
COc1ccc(C2=C3C(C)=CC(C)=[N+]3[B-](F)(F)n3c(/C=C/c4ccc(N(C)C)cc4)cc(C)c32)cc1,fluorescence lifetime,in C1CCCCC1,3.5 ns
same,fluorescence lifetime,in C1CCOC1,3 ns
same,fluorescence lifetime,in C1COCCO1,3.43 ns
same,fluorescence lifetime,in CC#N,1.2 ns
same,fluorescence lifetime,in CC(C)=O,2.23 ns
same,fluorescence lifetime,in CCC#N,1.84 ns
same,fluorescence lifetime,in CCCC#N,2.26 ns
same,fluorescence lifetime,in CCCCO,2.45 ns
same,fluorescence lifetime,in CCOC(C)=O,3.31 ns
same,fluorescence lifetime,in CCOCC,3.74 ns
same,fluorescence lifetime,in CO,0.85 ns
same,fluorescence lifetime,in Cc1ccccc1,3.25 ns
same,fluorescence lifetime,in ClC(Cl)Cl,3.47 ns
CCCCCCCCCCCCN1C(=O)c2c(c3ccc4cc(-c5ccc(C=O)cc5)c(OC)cc4c3c3c2ccc2cc(-c4ccc(C=O)cc4)c(OC)cc23)C1=O,fluorescence lifetime,in ClCCl,6.45 ns
CN(C)CCCN1c2ccccc2Sc2ccc(C(F)(F)F)cc21,fluorescence lifetime,in CC#N,2.66 ns
same,fluorescence lifetime,in CO,2.47 ns
same,fluorescence lifetime,in O,3.17 ns
O=S1(=O)c2ccccc2C2(c3cc(-c4ccc(N(c5ccccc5)c5ccccc5)cc4)ccc3-c3ccc(-c4ccc(N(c5ccccc5)c5ccccc5)cc4)cc32)c2ccccc21,fluorescence lifetime,in ClCCl,1.5 ns
CC1=CC(C)=[N+]2C1=Cc1c3ccccc3c(C#Cc3cccs3)n1[B-]2(F)F,fluorescence lifetime,in CCCCCC,4.69 ns
same,fluorescence lifetime,in CCCCCCCCO,3.74 ns
same,fluorescence lifetime,in CCOC(C)=O,4.07 ns
same,fluorescence lifetime,in CN(C)C=O,3.46 ns
CCOC(=O)CCCCCn1c2ccc(F)cc2c(=O)c2cc3c(cc21)c(=O)c1cc(F)ccc1n3CCCCCC(=O)OCC,fluorescence lifetime,in CO,22.7 ns
CCCN1C(=O)C(=CC=CC=C2Oc3ccccc3N2CCCS(=O)(=O)[O-])C(=O)N(CCC)C1=S,fluorescence lifetime,in CC(C)=O,0.854 ns
same,fluorescence lifetime,in CCCCO,0.821 ns
same,fluorescence lifetime,in CCO,0.465 ns
same,fluorescence lifetime,in CO,0.288 ns
same,fluorescence lifetime,in ClC(Cl)Cl,0.712 ns
CCn1c2ccccc2c2cc(-c3cc(-c4ccc5c(c4)c4ccccc4n5CC)nc(-c4ccccc4)n3)ccc21,fluorescence lifetime,in C1CCOC1,1.77 ns
CCCCc1cc(-c2cccc(COC)c2)oc1-c1cccc(-c2cc(CCCC)c(-c3cccc(-c4cc(CCCC)c(-c5cccc(-c6oc(-c7cccc(-c8oc(-c9cccc(-c%10oc(-c%11cccc(COC)c%11)cc%10CCCC)c9)cc8CCCC)c7)cc6CCCC)c5)o4)c3)o2)c1,fluorescence lifetime,in ClC(Cl)Cl,1.35 ns
